In article PMC6253998, “Ring-substituted 4-Hydroxy-1H-quinolin-2-ones: Preparation and Biological Activity” (Molecules, 2009):
Values after ≈ are worked out from the molar mass of the structure shown. Values joined by “and” are separate entries in the source; they are usually repeats but may differ in a detail not shown here. Identical values can stand only once. Like-named read-outs stand apart in the source and are kept apart here.

Legend:
spinach chloroplasts [1] = tested on: spinach chloroplasts; parameters: method as in earlier work; settings: standard, read-out: OER inhibition IC50; cited from earlier work
[2] = tested on: Trichosporon beigelii 1188; assay: In vitro antifungal broth microdilution test; format: cell-based; settings: RPMI 1640, pH 7.0, 35 °C; for MIC: Trichosporon beigelii, 1188, read-out: MIC/IC80 TB
Description: (§1) The broth microdilution test was used for the assessment of in vitro antifungal activity of the synthesized compounds against Candida albicans ATCC 44859 (CA), Candida tropicalis 156 (CT), Candida krusei ATCC 6258 (CK), Candida glabrata 20/I (CG), Trichosporon beigelii 1188 (TB), Aspergillus fumigatus 231 (AF), Absidia corymbifera 272 (AC), and Trichophyton mentagrophytes 445 (TM). Fluconazole (FLU) was used as the standard of a clinically used antimycotic drug. The procedure was performed with twofold dilution of the compounds in RPMI 1640 (Sevapharma a.s., Prague, Czech Republic) buffered to pH 7.0 with 0.165 mol of 3-morpholino-propane-1-sulfonic acid (MOPS, Sigma, Germany). The final concentrations of the compounds ranged from 500 to 0.975 μmol/l. Drug–free controls were included. The MIC was defined as an 80% or greater (IC80) reduction of growth in comparison with the control. The values of MICs were determined after 24 and 48 h of static incubation at 35 °C. For T. mentagrophytes, the final MICs were determined after 72 and 120 h of incubation.

Absidia corymbifera 272 = assay: In vitro antifungal broth microdilution test; format: cell-based; settings: RPMI 1640, pH 7.0, 35 °C; for MIC: Lichtheimia corymbifera, 272, read-out: MIC/IC80 AC
Description: (§2) Fluconazole (FLU) was used as the standard of a clinically used antimycotic drug. The procedure was performed with twofold dilution of the compounds in […]., Prague, Czech Republic) buffered to pH 7.0 with 0.165 mol of 3-morpholino-propane-1-sulfonic acid (MOPS, Sigma, Germany). […] Drug-free controls were included. The MIC was defined as an 80% or greater (IC80) reduction of growth in comparison with the control.

Candida krusei ATCC 6258 = assay: In vitro antifungal broth microdilution test; format: cell-based; settings: RPMI 1640, pH 7.0, 35 °C; for MIC: Pichia kudriavzevii, ATCC6258, read-out: MIC/IC80 CK
Description: as §2

[3] = tested on: Trichophyton mentagrophytes 445; assay: In vitro antifungal broth microdilution test; format: cell-based; settings: RPMI 1640, pH 7.0, 35 °C; for MIC: Trichophyton mentagrophytes, 445, read-out: MIC/IC80 TM
Description: as §2

Candida glabrata 20/I = assay: In vitro antifungal broth microdilution test; format: cell-based; settings: for MIC/IC80 CG / MIC: RPMI 1640, pH 7.0, 35 °C; for MIC: Nakaseomyces glabratus, 20/I, read-out: MIC/IC80 CG
Description: as §2

Candida tropicalis 156 = assay: In vitro antifungal broth microdilution test; format: cell-based; settings: RPMI 1640, pH 7.0, 35 °C; for MIC: Candida tropicalis, 156, read-out: MIC/IC80 CT
Description: as §2

[4] = tested on: Candida albicans ATCC 44859; assay: In vitro antifungal broth microdilution test; format: cell-based; settings: RPMI 1640, pH 7.0, 35 °C; for MIC: Candida albicans, ATCC44859, read-out: MIC/IC80 CA
Description: as §2

[5] = tested on: Aspergillus fumigatus 231; assay: In vitro antifungal broth microdilution test; format: cell-based; settings: RPMI 1640, pH 7.0, 35 °C; for MIC: Aspergillus fumigatus, 231, read-out: MIC/IC80 AF
Description: as §2

[6] = Lipophilicity HPLC determination (capacity factor k / log k); format: physicochemical; settings: RP-HPLC, C18 column, MeOH 55.0% / H2O 45.0%, isocratic
Description: Hydrophobicities (log P/Clog P values) of the compounds 1-12 were calculated using two commercially available programs and also measured by means of the reversed phase high performance liquid chromatography (RP-HPLC) method for lipophilicity measurement. The procedure was performed under isocratic conditions with methanol as an organic modifier in the mobile phase using an end-capped non-polar C18 stationary RP column. The capacity factors k were determined and subsequent log k values were calculated.
The HPLC separation module Waters Alliance 2695 XE and Waters Photodiode Array Detector 2996 (Waters Corp., Milford, MA, U.S.A.) were used. A Symmetry® C18 5 μm, 4.6 × 250 mm, Part No. WAT054275, (Waters Corp., Milford, MA, U.S.A.) chromatographic column was used. The HPLC separation process was monitored by Millennium32® Chromatography Manager Software, Waters 2004 (Waters Corp., Milford, MA, U.S.A.). The mixture of MeOH p.a. (55.0%) and H2O-HPLC – Mili-Q Grade (45.0%) was used as a mobile phase. The total flow of the column was 0.9 mL/min, injection 30 μL, column temperature 30 °C and sample temperature 10 °C. The detection wavelength 210 nm was chosen. The KI methanolic solution was used for the dead time (TD) determination. Retention times (tR) were measured in minutes. The capacity factors k were calculated using the Millennium32® Chromatography Manager Software according to formula k = (tR - tD) / tD, where tR is the retention time of the solute, whereas tD denotes the dead time obtained via an unretained analyte. Log k, calculated from the capacity factor k, is used as the lipophilicity index converted to log P scale.

spinach chloroplasts [7] = assay: Inhibition of oxygen evolution rate (OER) / photosynthetic electron transport in spinach chloroplasts; format: biochemical, Spinacia oleracea L.; settings: DCPIP photoreduction, pH 7.2
Description: Chloroplasts were prepared from spinach (Spinacia oleracea L.) according to Masarovicova and Kralova. The inhibition of photosynthetic electron transport (PET) in spinach chloroplasts was determined spectrophotometrically (Genesys 6, Thermo Scientific, U.S.A.) using an artificial electron acceptor 2,6-dichlorophenol-indophenol (DCPIP) according to Kralova et al. and the rate of photosynthetic electron transport was monitored as a photoreduction of DCPIP. The measurements were carried out in phosphate buffer (0.02 mol/L, pH 7.2) containing sucrose (0.4 mol/L), MgCl2 (0.005 mol/L) and NaCl (0.015 mol/L). The chlorophyll content was 30 mg/L in these experiments and the samples were irradiated (~100 W/m^2) from 10 cm distance with a halogen lamp (250 W) using a 4 cm water filter to prevent warming of the samples (suspension temperature 22 °C). The studied compounds were dissolved in DMSO due to their limited water solubility. […] The inhibitory efficiency of the studied compounds was expressed by IC50 values, i.e. by molar concentration of the compounds causing 50% decrease in the oxygen evolution rate relative to the untreated control.

eight fungal strains = assay: In vitro antifungal screening, overall verdict; format: cell-based; settings: especially against Candida albicans ATCC 44859
Description: as §1

For `CN(C)C(=O)Nc1ccc(Cl)c(Cl)c1` [DCMU, 3-(3,4-dichlorophenyl)-1,1-dimethylurea], the IC50 (spinach chloroplasts [1]) is given as ~1.9 µM and 1.9 µM.

With “3-(4-Carboxy-3-hydroxyphenylcarbamoyl)-4-hydroxy-2-oxo-1,2-dihydroquinoline-6-carboxylic acid [Compound 12]” the “MIC/IC80 TB” value ([2]; 24h) was 125 µM, the “MIC/IC80 TB” value ([2]; 48h) was >500 µM and the “MIC/IC80 AC” value (Absidia corymbifera 272; 24h) was 500 µM. The “MIC/IC80 AC” value (Absidia corymbifera 272; 48h) was >500 µM, the “MIC/IC80 CK” value (Candida krusei ATCC 6258; 24h) was >500 µM and the “MIC/IC80 CK” value (Candida krusei ATCC 6258; 48h) was >500 µM. The “MIC/IC80 TM” value ([3]; 72h) was 500 µM, the “MIC/IC80 TM” value ([3]; 120h) was >500 µM and the “MIC/IC80 CG” value (Candida glabrata 20/I; 24h) was 125 µM. The “MIC/IC80 CG” value (Candida glabrata 20/I; 48h) was 250 µM, the “MIC/IC80 CT” value (Candida tropicalis 156; 24h) was 500 µM and the “MIC/IC80 CT” value (Candida tropicalis 156; 48h) was >500 µM. The “MIC/IC80 CA” value ([4]; 24h) was 62.50 µM, the “MIC/IC80 CA” value ([4]; 48h) was 125 µM and the “MIC/IC80 AF” value ([5]; 24h) was 500 µM. The “MIC/IC80 AF” value ([5]; 48h) was >500 µM, the log k [6] was 0.0093 and the IC50 (spinach chloroplasts [7]) was 321 µM. The “in vitro antifungal activity (in words)” value (eight fungal strains) was “only a moderate activity”.

For `O=C(O)c1cc2c(O)cc(=O)[nH]c2cc1O` [Compound 4, 4,7-Dihydroxy-2-oxo-1,2-dihydroquinoline-6-carboxylic acid], the MIC ([2]; 24h) was 62.5 µM (≈ 13.8 µg/mL), the MIC ([2]; 48h) was > 500 µM and the MIC (Absidia corymbifera 272; 24h) was > 500 µM. The MIC (Absidia corymbifera 272; 48h) was > 500 µM, the MIC (Candida krusei ATCC 6258; 24h) was > 500 µM and the MIC (Candida krusei ATCC 6258; 48h) was > 500 µM. The MIC ([3]; 72h) was > 500 µM, the MIC ([3]; 120h) was > 500 µM and the “antifungal activity against Candida glabrata 20/I (in words)” value (Candida glabrata 20/I) was “medium activity”. The MIC (Candida glabrata 20/I; 24h) was 62.5 µM (≈ 13.8 µg/mL), the MIC (Candida glabrata 20/I; 48h) was 250 µM (≈ 55.3 µg/mL) and the MIC (Candida tropicalis 156; 24h) was 500 µM (≈ 111 µg/mL). The MIC (Candida tropicalis 156; 48h) was > 500 µM, the MIC ([4]; 24h) was 15.6 µM (≈ 3.45 µg/mL) and the MIC ([4]; 48h) was 62.5 µM (≈ 13.8 µg/mL). For the same molecule, the MIC ([5]; 24h) was 500 µM (≈ 111 µg/mL), the MIC ([5]; 48h) was > 500 µM and the log k [6] was 0.0080. For the same molecule, the IC50 (spinach chloroplasts [7]) was 538 µM and the “in vitro antifungal activity (in words)” value (eight fungal strains) was “only a moderate activity”.
